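Here, GI50 denotes the concentration required for 50% inhibition of growth. TGI is the concentration that stops growth completely.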
Experiments:
Assay in all cases: NCI anticancer screen, dose series, 384-well format
SN12C renal = test system: SN12C renal
MALME-3M melanoma = test system: MALME-3M melanoma
TK-10 renal = test system: TK-10 renal
HCC-2998 colon = test system: HCC-2998 colon
SW-620 colon = test system: SW-620 colon
OVCAR-5 ovarian = test system: OVCAR-5 ovarian
EKVX NSCLC = test system: EKVX NSCLC
MOLT-4 leukemia = test system: MOLT-4 leukemia
RPMI-8226 leukemia = test system: RPMI-8226 leukemia
SK-MEL-28 melanoma = test system: SK-MEL-28 melanoma
BT-549 breast = test system: BT-549 breast
OVCAR-4 ovarian = test system: OVCAR-4 ovarian
MDA-MB-231 breast = test system: MDA-MB-231 breast
NCI-H522 lung = test system: NCI-H522 lung
NCI-H460 NSCLC = test system: NCI-H460 NSCLC
UO-31 renal = test system: UO-31 renal
SNB-75 CNS = test system: SNB-75 CNS
RXF 393 renal = test system: RXF 393 renal
HCT-15 colon = test system: HCT-15 colon
DU-145 prostate = test system: DU-145 prostate
MDA-MB-435 melanoma = test system: MDA-MB-435 melanoma
COLO 205 colon = test system: COLO 205 colon
SR leukemia = test system: SR leukemia
HS 578T breast = test system: HS 578T breast
NCI/ADR-RES ovarian = test system: NCI/ADR-RES ovarian
ACHN renal = test system: ACHN renal
SK-MEL-2 melanoma = test system: SK-MEL-2 melanoma
HOP-62 NSCLC = test system: HOP-62 NSCLC
UACC-257 melanoma = test system: UACC-257 melanoma
KM12 colon = test system: KM12 colon
HOP-92 NSCLC = test system: HOP-92 NSCLC
HT29 colon = test system: HT29 colon
SF-295 CNS = test system: SF-295 CNS
U251 glioblastoma = test system: U251 glioblastoma
OVCAR-8 ovarian = test system: OVCAR-8 ovarian
SK-MEL-5 melanoma = test system: SK-MEL-5 melanoma
SF-268 CNS = test system: SF-268 CNS
CAKI-1 renal = test system: CAKI-1 renal
K-562 leukemia = test system: K-562 leukemia
A549 NSCLC = test system: A549 NSCLC
NCI-H226 lung = test system: NCI-H226 lung
MCF7 breast = test system: MCF7 breast
SNB-19 CNS = test system: SNB-19 CNS
NCI-H23 lung = test system: NCI-H23 lung
MDA-MB-468 breast = test system: MDA-MB-468 breast
OVCAR-3 ovarian = test system: OVCAR-3 ovarian
HCT-116 colon = test system: HCT-116 colon

With `Cc1ccc2c(Nc3cccc(Cl)c3F)ncc(NC(=O)c3csc4c(N)ncnc34)c2c1` the GI50 (SN12C renal) was 8.16 µM, the TGI (SN12C renal) was > 100 µM and the GI50 (MALME-3M melanoma) was 12.4 nM. It also gave a TGI (MALME-3M melanoma) of 43.6 nM, a GI50 (TK-10 renal) of 8.61 µM and a TGI (TK-10 renal) of 75.8 µM. It also gave a GI50 (HCC-2998 colon) of 115 nM, a TGI (HCC-2998 colon) of 537 nM and a GI50 (SW-620 colon) of 721 nM. The TGI (SW-620 colon) was > 100 µM, the GI50 (OVCAR-5 ovarian) was 178 nM and the TGI (OVCAR-5 ovarian) was > 100 µM. The GI50 (EKVX NSCLC) was 10.8 µM, the TGI (EKVX NSCLC) was > 100 µM and the GI50 (MOLT-4 leukemia) was 21.8 µM. For the same compound, the TGI (MOLT-4 leukemia) was > 100 µM, the GI50 (RPMI-8226 leukemia) was 1600 nM and the TGI (RPMI-8226 leukemia) was 18.5 µM. It also gave a GI50 (SK-MEL-28 melanoma) of 17.9 nM, a TGI (SK-MEL-28 melanoma) of 92.3 nM and a GI50 (BT-549 breast) of 22.8 µM. For the same compound, the TGI (BT-549 breast) was > 100 µM, the GI50 (OVCAR-4 ovarian) was 44.6 µM and the TGI (OVCAR-4 ovarian) was > 100 µM. The GI50 (MDA-MB-231 breast) was 19.5 nM, the TGI (MDA-MB-231 breast) was 16.3 µM and the GI50 (NCI-H522 lung) was 13.1 µM. The TGI (NCI-H522 lung) was 59 µM, the GI50 (NCI-H460 NSCLC) was 13 µM and the TGI (NCI-H460 NSCLC) was > 100 µM. The GI50 (UO-31 renal) was 258 nM, the TGI (UO-31 renal) was > 100 µM and the GI50 (SNB-75 CNS) was 33.6 µM. For the same compound, the TGI (SNB-75 CNS) was > 100 µM, the GI50 (RXF 393 renal) was 968 nM and the TGI (RXF 393 renal) was 95.7 µM. For the same compound, the GI50 (HCT-15 colon) was 26.3 µM, the TGI (HCT-15 colon) was > 100 µM and the GI50 (DU-145 prostate) was 22 µM. For the same compound, the TGI (DU-145 prostate) was > 100 µM, the GI50 (MDA-MB-435 melanoma) was 48.1 nM and the TGI (MDA-MB-435 melanoma) was 55 µM. For the same compound, the GI50 (COLO 205 colon) was 24.2 nM, the TGI (COLO 205 colon) was 19.3 µM and the GI50 (SR leukemia) was 15.1 µM. For the same compound, the TGI (SR leukemia) was 82.8 µM, the GI50 (HS 578T breast) was 931 nM and the TGI (HS 578T breast) was 63.4 µM. For the same compound, the GI50 (NCI/ADR-RES ovarian) was 19.7 µM, the TGI (NCI/ADR-RES ovarian) was > 100 µM and the GI50 (ACHN renal) was 12.7 µM. For the same compound, the TGI (ACHN renal) was > 100 µM, the GI50 (SK-MEL-2 melanoma) was 34.6 nM and the TGI (SK-MEL-2 melanoma) was 148 nM. For the same compound, the GI50 (HOP-62 NSCLC) was 11.5 µM, the TGI (HOP-62 NSCLC) was > 100 µM and the GI50 (UACC-257 melanoma) was 66.8 nM. For the same compound, the TGI (UACC-257 melanoma) was 569 nM, the GI50 (KM12 colon) was 540 nM and the TGI (KM12 colon) was 99.4 µM. The GI50 (HOP-92 NSCLC) was 542 nM, the TGI (HOP-92 NSCLC) was 7.97 µM and the GI50 (HT29 colon) was 127 nM. For the same compound, the TGI (HT29 colon) was > 100 µM, the GI50 (SF-295 CNS) was 93.7 µM and the TGI (SF-295 CNS) was > 100 µM. The GI50 (U251 glioblastoma) was 22.3 µM, the TGI (U251 glioblastoma) was > 100 µM and the GI50 (OVCAR-8 ovarian) was 13.2 µM. The TGI (OVCAR-8 ovarian) was 43.1 µM, the GI50 (SK-MEL-5 melanoma) was 51.8 nM and the TGI (SK-MEL-5 melanoma) was 23.1 µM. The GI50 (SF-268 CNS) was 21.9 µM, the TGI (SF-268 CNS) was 73.7 µM and the GI50 (CAKI-1 renal) was 577 nM. For the same compound, the TGI (CAKI-1 renal) was > 100 µM, the GI50 (K-562 leukemia) was 592 nM and the TGI (K-562 leukemia) was > 100 µM. For the same compound, the GI50 (A549 NSCLC) was 17.5 µM, the TGI (A549 NSCLC) was > 100 µM and the GI50 (NCI-H226 lung) was 978 nM. For the same compound, the TGI (NCI-H226 lung) was > 100 µM, the GI50 (MCF7 breast) was 7.47 µM and the TGI (MCF7 breast) was > 100 µM. For the same compound, the GI50 (SNB-19 CNS) was 55 µM, the TGI (SNB-19 CNS) was > 100 µM and the GI50 (NCI-H23 lung) was 76.1 nM. It also gave a TGI (NCI-H23 lung) of 4.46 µM, a GI50 (MDA-MB-468 breast) of 18.3 µM and a TGI (MDA-MB-468 breast) of 52.4 µM. The GI50 (OVCAR-3 ovarian) was 22.2 µM, the TGI (OVCAR-3 ovarian) was 84.7 µM and the GI50 (HCT-116 colon) was 162 nM. The TGI (HCT-116 colon) was 19.8 µM.

From PubChem BioAssay (NCI)
